Test results published in ChEMBL document CHEMBL1201862, “PubChem BioAssay data set” (2004).
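Tested at 5 concentrations; 48 h exposure; 96-well plates; endpoints linearly interpolated, else capped at highest concentration. Here, GI50 denotes the concentration required for 50% inhibition of growth.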 Activity calls are given as the source filed them. Cut-off read from the data, not from the text of the source: active = GI50 up to about 1.1 µM and inactive = higher.

Experiments:
Test in all cases: growth of human tumour cells (NCI), 48 h
[1] = tested on: 786-0
[2] = tested on: A549
[3] = tested on: ACHN
[4] = tested on: BT-549
[5] = tested on: CAKI-1
[6] = tested on: CCRF-CEM
[7] = tested on: COLO 205
[8] = tested on: DU-145
[9] = tested on: EKVX
[10] = tested on: HCC 2998
[11] = tested on: HCT-116
[12] = tested on: HCT-15
[13] = tested on: HL-60
[14] = tested on: HOP-62
[15] = tested on: HOP-92
[16] = tested on: HT-29
[17] = tested on: IGROV-1
[18] = tested on: K562
[19] = tested on: KM12
[20] = tested on: LOX IMVI
[21] = tested on: M14
[22] = tested on: MCF7
[23] = tested on: MDA-MB-231
[24] = tested on: MDA-MB-435
[25] = tested on: MDA-N
[26] = tested on: MOLT-4
[27] = tested on: Malme-3M
[28] = tested on: NCI-H226
[29] = tested on: NCI-H23
[30] = tested on: NCI-H460
[31] = tested on: NCI-H522
[32] = tested on: NCI/ADR-RES
[33] = tested on: OVCAR-3
[34] = tested on: OVCAR-4
[35] = tested on: OVCAR-5
[36] = tested on: OVCAR-8
[37] = tested on: PC-3
[38] = tested on: RPMI-8226
[39] = tested on: RXF 393
[40] = tested on: SF-268
[41] = tested on: SF-295
[42] = tested on: SF-539
[43] = tested on: SK-MEL-28
[44] = tested on: SK-MEL-2
[45] = tested on: SK-OV-3
[46] = tested on: SN12C
[47] = tested on: SNB-19
[48] = tested on: SNB-75
[49] = tested on: SW-620
[50] = tested on: T47D
[51] = tested on: TK-10
[52] = tested on: U-251
[53] = tested on: UACC-257
[54] = tested on: UACC-62
[55] = tested on: A498
[56] = tested on: Hs-578T
[57] = tested on: SK-MEL-5
[58] = tested on: SR
[59] = tested on: UO-31

SMILES: O=C(O)C1CCCCN1C(=O)Cc1c[nH]c2ccccc12 (stereo not given)
- GI50 [1]: > 100 µM (inactive)
- GI50 [2]: > 100 µM (inactive)
- GI50 [3]: > 100 µM (inactive)
- GI50 [4]: > 100 µM (inactive)
- GI50 [5]: > 100 µM (inactive)
- GI50 [6]: > 100 µM (inactive)
- GI50 [7]: > 100 µM (inactive)
- GI50 [8]: > 100 µM (inactive)
- GI50 [9]: > 100 µM (inactive)
- GI50 [10]: > 100 µM (inactive)
- GI50 [11]: > 100 µM (inactive)
- GI50 [12]: > 100 µM
- GI50 [13]: > 100 µM (inactive)
- GI50 [14]: > 100 µM (inactive)
- GI50 [15]: > 100 µM (inactive)
- GI50 [16]: > 100 µM (inactive)
- GI50 [17]: > 100 µM (inactive)
- GI50 [18]: > 100 µM (inactive)
- GI50 [19]: > 100 µM (inactive)
- GI50 [20]: > 100 µM (inactive)
- GI50 [21]: > 100 µM (inactive)
- GI50 [22]: > 100 µM (inactive)
- GI50 [23]: 29 µM (inactive)
- GI50 [24]: > 100 µM (inactive)
- GI50 [25]: > 100 µM (inactive)
- GI50 [26]: > 100 µM (inactive)
- GI50 [27]: > 100 µM (inactive)
- GI50 [28]: > 100 µM (inactive)
- GI50 [29]: > 100 µM (inactive)
- GI50 [30]: > 100 µM (inactive)
- GI50 [31]: > 100 µM (inactive)
- GI50 [32]: > 100 µM (inactive)
- GI50 [33]: > 100 µM (inactive)
- GI50 [34]: > 100 µM (inactive)
- GI50 [35]: > 100 µM (inactive)
- GI50 [36]: > 100 µM (inactive)
- GI50 [37]: > 100 µM (inactive)
- GI50 [38]: > 100 µM (inactive)
- GI50 [39]: > 100 µM (inactive)
- GI50 [40]: > 100 µM (inactive)
- GI50 [41]: > 100 µM (inactive)
- GI50 [42]: > 100 µM (inactive)
- GI50 [43]: > 100 µM (inactive)
- GI50 [44]: > 100 µM (inactive)
- GI50 [45]: > 100 µM (inactive)
- GI50 [46]: > 100 µM (inactive)
- GI50 [47]: > 100 µM (inactive)
- GI50 [48]: > 100 µM (inactive)
- GI50 [49]: > 100 µM (inactive)
- GI50 [50]: > 100 µM (inactive)
- GI50 [51]: > 100 µM (inactive)
- GI50 [52]: > 100 µM (inactive)
- GI50 [53]: > 100 µM (inactive)
- GI50 [54]: > 100 µM (inactive)

SMILES: COc1c2c(c(CC=C(C)C)c3oc(=O)c(-c4ccc(O)cc4)c(O)c13)OC(C)(C)C=C2 [LONCHOCARPIC ACID]
- GI50 [1]: 25.5 µM (inactive)
- GI50 [55]: 31.8 µM (inactive)
- GI50 [2]: 19.1 µM (inactive)
- GI50 [3]: 22.1 µM (inactive)
- GI50 [4]: 41.8 µM (inactive)
- GI50 [5]: 40.6 µM (inactive)
- GI50 [6]: 23.7 µM (inactive)
- GI50 [7]: 23.4 µM (inactive)
- GI50 [8]: 38.1 µM (inactive)
- GI50 [9]: 22.3 µM (inactive)
- GI50 [10]: 20.8 µM (inactive)
- GI50 [11]: 15.7 µM (inactive)
- GI50 [12]: 11.9 µM
- GI50 [13]: 21.2 µM (inactive)
- GI50 [14]: 23.4 µM (inactive)
- GI50 [15]: 27.2 µM (inactive)
- GI50 [16]: 30 µM (inactive)
- GI50 [56]: 36.2 µM (inactive)
- GI50 [17]: 18.4 µM (inactive)
- GI50 [18]: 29.5 µM (inactive)
- GI50 [19]: 14.4 µM (inactive)
- GI50 [20]: 34.4 µM (inactive)
- GI50 [21]: 25.8 µM (inactive)
- GI50 [22]: 16.8 µM (inactive)
- GI50 [23]: 24.8 µM (inactive)
- GI50 [24]: 15.2 µM (inactive)
- GI50 [26]: 24.9 µM (inactive)
- GI50 [27]: 30.8 µM (inactive)
- GI50 [28]: 21.5 µM (inactive)
- GI50 [29]: 43.9 µM (inactive)
- GI50 [30]: 24 µM (inactive)
- GI50 [31]: 23 µM (inactive)
- GI50 [32]: 28.7 µM (inactive)
- GI50 [33]: 15.7 µM (inactive)
- GI50 [34]: 17.7 µM (inactive)
- GI50 [35]: 42.9 µM (inactive)
- GI50 [36]: 29 µM (inactive)
- GI50 [37]: 31.5 µM (inactive)
- GI50 [38]: 19.5 µM (inactive)
- GI50 [39]: 1.41 µM (inactive)
- GI50 [40]: 14.1 µM (inactive)
- GI50 [41]: 28.2 µM (inactive)
- GI50 [42]: 15.1 µM (inactive)
- GI50 [43]: 25.9 µM (inactive)
- GI50 [44]: 19.6 µM (inactive)
- GI50 [57]: 12.8 µM (inactive)
- GI50 [46]: 27.5 µM (inactive)
- GI50 [47]: 29.5 µM (inactive)
- GI50 [58]: 18.5 µM (inactive)
- GI50 [49]: 44.1 µM (inactive)
- GI50 [50]: 14.3 µM (inactive)
- GI50 [51]: 32.4 µM (inactive)
- GI50 [52]: 8.26 µM (inactive)
- GI50 [53]: 27.7 µM (inactive)
- GI50 [54]: 21.2 µM (inactive)
- GI50 [59]: 27.8 µM (inactive)
